Measured values as given in article PMC12020424, “Identification and Validation of Cyclic Peptides with Mucin-Selective, Location-Specific Binding in the Gastrointestinal Tract” (ACS Nano, 2025).
Bridge positions count the residues as written; N and C are the ends. Ends that are not written are not given here.

Tests used:
MUC5AC = MUC5AC (Homo sapiens, UniProt P98088); test: Phage ELISA on MUC5AC; type: binding; settings: phage clones displaying the peptide, 10^7 PFU/μL, MUC5AC-coated plate, anti-M13/HRP, TMB, 450 nm, blank subtracted, three wells; vs random library and insertless phage
Text: We next sought to validate the binding efficiency of these identified phage clones. We tested phage clones displaying peptides M2.1, M2.2, M2.3, and M2.4 for binding to MUC2, and phage clones displaying peptides M5.1, M5.2, M5.3, and M5.4 for binding to MUC5AC. We utilized a bacteriophage enzyme-linked immunosorbent assay to test the binding of the peptide hits to the specific target mucins, MUC2 and MUC5AC (Figure 2d). The spectrophotometer reported absorbance values at 450 nm. The intensity of the absorbance signal is proportional to the amount of peptide-mucin binding present in each sample. The negative controls (library samples and insertless samples) served as references for nonspecific binding.
First, mucin was coated onto the surface of a plastic plate overnight using the same process as that performed for the original phage display. The next morning, three wells of each phage clone were prepared, with each phage solution having a titer of 10^7 PFU/μL to ensure a fair comparison between the clones. […]
However, instead of eluting the bound phage, 100 μL of 1:2000 anti-M13/HRP mouse monoclonal antibody was added to each well, and the antibody was allowed to incubate with the wells for 30 min. […] The resulting solutions were analyzed by absorbance spectroscopy at a wavelength of 450 nm to determine the relative amount of phage present in each well.

[1] = test system: MUC5AC-containing stomach tissue; test: Ex vivo fluorescent binding to stomach tissue; parameters: species or system porcine; settings: MUC5AC-selective peptides to stomach
Text: After identifying the peptide hits for each mucin, we tested their binding in an ex vivo setting (Figure S1), evaluating their interaction with mucin-containing porcine tissue and semiquantitatively representing it through fluorescent imaging (Figure 3a). The cyclic peptides were synthesized and conjugated to a fluorophore, Alexa Fluor 647 (AF647), at the N-terminus to allow fluorescent imaging to be used to semiquantitatively measure the peptides’ ex vivo tissue binding, compared to free AF647 and AF647 conjugated to wheat germ agglutinin (WGA), a known lectin for glycoproteins.[40] […] Porcine GI tissue was used due to its similarity in mucin expression compared to human GI tissue and its capacity to source large surface areas of tissue for experiments.[41],[42] Representative IVIS images are shown in Figure 3b-e, where the first four columns represent the four identified peptides (M2.1–M2.4 in Figure 3b,c, M5.1–M5.4 in Figure 3d,e), the fifth column represents WGA-AF647, and the sixth column represents AF647. The “score” results for the peptide ligands are presented in Figure 3f,g for the mucins of interest, with Tables S2–S5 and Figure S3 detailing results for the other tissues (the equation for calculating the “score” is found in the Materials and Methodssection). […] We also examined selectivity by incubating peptides on nontarget tissues. Figure 3h,i depicts the “selectivity” results for the MUC2-selective and MUC5AC-selective peptides, respectively. Selectivity was calculated by determining the ratio of the “score” for a particular mucin to the sum of the “scores” for all mucins (see the Materials and Methods section for the equation used).
The top-performing hits from phage display were tested on ex vivo segments of porcine mucin-containing tissues (jejunal, stomach, and esophageal tissues) obtained from local abattoirs or laboratory-maintained pigs. Tissue was used either immediately after acquisition or after storage at −80 °C; tissue was used at most 1 week after acquisition and storage at −80 °C. After acquisition and equilibration to room temperature, the tissue was washed twice with 25 mL (each) of cold 1× PBS to remove undigested food and other debris. After washing and cleaning, the tissue was mounted between two magnetic plates with holes corresponding to a 48-well plate, as previously described,[72] such that the luminal side of the tissue was facing up (Figure S1). After the tissue was mounted, the amount of peptide/protein corresponding to 40 μg of AF647 was suspended in 200 μL of 1× PBS and added to the wells created by the magnetic plates. This was done 3× for each formulation to perform the experiment in triplicate. In addition, plain 1× PBS was added to one well to serve as the background measurement. […] After washing was complete, fluorescence imaging was performed using an IVIS Spectrum fluorescent imaging system (PerkinElmer), with an automatically calculated exposure time (usually ∼1 s), a 20 cm × 20 cm field of view, and an excitation/emission of 640/680 nm, respectively. The imaging results were analyzed using Living Image software to calculate the total fluorescence intensity for each well, and the results for each hit or control were averaged across different wells. […]
To better account for tissue-to-tissue variability, the results for each trial were reported as scores rather than using the raw fluorescence intensity. […]

CTDKASSSC (disulfide 1-9 (inferred)) [Peptide M5.1, CX7C cyclic peptide hit for MUC5AC]
phage ELISA binding vs negative controls (MUC5AC): significantly greater binding to MUC5AC than the random library and insertless phage
Overall nanoparticle “score” ([1]; scaled between free AF647 (0) and WGA-AF647 (1), mean across trials n = 3): 0.800
Selectivity ([1]; score for MUC5AC tissue / sum of scores for all mucins, n = 3): 0.370
